Measured values from US20070135499A1 (Aerie Pharmaceuticals, Inc., priority 2005, published 2007).

How the values were obtained:
hGRK-2 = target: T1, hGRK-2 (Homo sapiens, UniProt P25098); experiment: luciferase-based (Kinase-Glo) biochemical kinase inhibition assay, hGRK-2; details: luciferase assay, casein substrate, 10 μM ATP; read-out: GRK-2 inhibition, Ki class
T1 sequence (P25098 1-689): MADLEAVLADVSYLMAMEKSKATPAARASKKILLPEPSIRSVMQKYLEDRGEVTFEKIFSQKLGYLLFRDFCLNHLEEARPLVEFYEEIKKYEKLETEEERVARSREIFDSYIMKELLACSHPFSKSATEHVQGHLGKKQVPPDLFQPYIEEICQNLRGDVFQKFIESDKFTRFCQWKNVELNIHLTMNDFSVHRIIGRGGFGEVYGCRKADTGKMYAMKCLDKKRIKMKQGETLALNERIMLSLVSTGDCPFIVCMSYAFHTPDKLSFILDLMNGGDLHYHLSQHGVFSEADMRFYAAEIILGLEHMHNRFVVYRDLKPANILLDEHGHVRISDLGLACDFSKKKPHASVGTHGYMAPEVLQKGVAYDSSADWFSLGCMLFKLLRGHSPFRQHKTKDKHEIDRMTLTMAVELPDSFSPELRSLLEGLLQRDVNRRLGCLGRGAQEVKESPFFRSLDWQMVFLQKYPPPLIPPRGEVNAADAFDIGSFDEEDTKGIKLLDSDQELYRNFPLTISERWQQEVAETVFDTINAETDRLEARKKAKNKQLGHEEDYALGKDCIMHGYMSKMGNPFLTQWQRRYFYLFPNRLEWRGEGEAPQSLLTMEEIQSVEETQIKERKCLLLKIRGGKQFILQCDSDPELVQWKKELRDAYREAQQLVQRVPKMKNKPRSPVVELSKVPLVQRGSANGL
Protocol: (§1) The inhibition of G-protein-coupled receptor kinases including hGRK-2 was determined for the hydrazide compounds using a biochemical assay. The inhibition of GRK-3, GRK-5 and GRK-6 was also determined using the same assay for some of the hydrazide derivatives.
(§2) The protein kinase inhibition was determined using a biochemical assay utilizing the light emission of a luciferase reaction. The luciferase-based assay operates on the following reaction principles: [drawing 10]
(§3) An inhibitor of GRK-2 will increase in the amount of ATP in solution, as shown. Thus, an inhibitor of GRK-2 will drive the luciferase reaction to the right, resulting in more light emitted. The amount of light emitted is proportional to the inhibition resulting from the GRK-2 inhibitor. The luciferase-based assay was also used to test some of the hydrazides for the inhibition properties towards other kinases.
The test procedure was as follows:
• 50 mM HEPES, pH 7.5 • 10 mM MgCl2 • 100 μM activated sodium orthovanadate • 0.01% CHAPS • 0.1% BSA • 1 mM DTT (added fresh daily) 10× Assay Buffer Stock: • 500 mM HEPES, pH 7.5 • 100 mM MgCl2 • 1 mM activated sodium orthovanadate • 0.1% CHAPS • 1% BSA (leave out for 10× compound dilution buffer) Final Assay Conditions: • 50 μM test compound • 20 μM casein • 10 μM ATP • 50 nM hGRK2 • 4.5% DMSO • 90-120 minute incubation
Stopped by addition of 30 μl 3×-diluted Kinase-Glo reagent containing 0.01% trypan blue. Counted on FUSION plate reader.
Compound Dilution and Transfer
Prepare sufficient buffer containing 40% DMSO to add 20 μl/well to the number of plates being assayed. This buffer should not contain BSA because it will precipitate with addition of 40% DMSO. (EXAMPLE: To make 3000 ml compound dilution buffer: 1200 ml DMSO, 180 ml 10× compound dilution buffer, 1615 ml ultrapure water, 3 ml 1M DTT.).
Using Multidrop, add 20 μl of compound dilution buffer to all wells of the 384-well daughter plate (add 1 μl DMSO to control wells). This will result in a daughter plate which contains 21 μl of ˜500 μM test compound.
Using the PlateTrak, transfer 5 μl of the test compounds to a 384-well, non-binding, white microtiter plate.
Prepare sufficient volume of buffer (with BSA and 1 mM DTT) containing 125 nM GRK2 and 25 μM ATP. (Example: To 219 ml of buffer was added 550 μl 10 mM ATP and 350 μl 79 μM GRK2).
Using Multidrop, add 20 μl of GRK2/ATP mixture to all wells of the microtiter plate.
Prepare sufficient volume of buffer (with BSA and 1 mM DTT) containing 40 μM casein. (EXAMPLE: To 211 ml buffer add 8.8 ml 1 mM casein)
Using Multidrop, add 25 μl to columns 1 through 23 of the microtiter plate. Add 25 μl of complete buffer to column 24 (blanks).
Mix reaction gently by tapping (Multidrop addition of casein does a decent job of mixing), stack plates and incubate at room temperature for between 90 and 120 minutes. Assay progression can be tracked in a separate plate if desired. Target 20-30% ATP consumption. Try to avoid exceeding 40% consumption as kinetics might become non-linear due to substrate (ATP) depletion.
Addition of Kinase-Glo Reagents
The Kinase-Glo reagent can be diluted 3-fold with no loss of data quality in this assay. Additionally, since the library contains many colored compounds which will quench the light emitted from the well resulting in a false negative (kinase inhibitors result in less ATP consumption thus more light emitted), the entire reaction is subject to intentional quench to override this effect. This intentional quench is accomplished by the addition of 0.01% trypan blue to the Kinase-Glo reagents. (EXAMPLE: 100 ml 1× Kinase-Glo reagents (prepared according to product insert), 200 ml assay buffer, 7.5 ml 0.4% trypan blue.
Using Multidrop, add 30 μl to all wells of the assay plate.
Count on FUSION plate reader in luminescence mode.

GRK-3 = target: T2, GRK-3 (Homo sapiens, UniProt P35626); experiment: luciferase-based biochemical kinase inhibition assay, GRK-3; details: same luciferase assay; read-out: GRK-3 inhibition, Ki class
T2 sequence (P35626 1-688): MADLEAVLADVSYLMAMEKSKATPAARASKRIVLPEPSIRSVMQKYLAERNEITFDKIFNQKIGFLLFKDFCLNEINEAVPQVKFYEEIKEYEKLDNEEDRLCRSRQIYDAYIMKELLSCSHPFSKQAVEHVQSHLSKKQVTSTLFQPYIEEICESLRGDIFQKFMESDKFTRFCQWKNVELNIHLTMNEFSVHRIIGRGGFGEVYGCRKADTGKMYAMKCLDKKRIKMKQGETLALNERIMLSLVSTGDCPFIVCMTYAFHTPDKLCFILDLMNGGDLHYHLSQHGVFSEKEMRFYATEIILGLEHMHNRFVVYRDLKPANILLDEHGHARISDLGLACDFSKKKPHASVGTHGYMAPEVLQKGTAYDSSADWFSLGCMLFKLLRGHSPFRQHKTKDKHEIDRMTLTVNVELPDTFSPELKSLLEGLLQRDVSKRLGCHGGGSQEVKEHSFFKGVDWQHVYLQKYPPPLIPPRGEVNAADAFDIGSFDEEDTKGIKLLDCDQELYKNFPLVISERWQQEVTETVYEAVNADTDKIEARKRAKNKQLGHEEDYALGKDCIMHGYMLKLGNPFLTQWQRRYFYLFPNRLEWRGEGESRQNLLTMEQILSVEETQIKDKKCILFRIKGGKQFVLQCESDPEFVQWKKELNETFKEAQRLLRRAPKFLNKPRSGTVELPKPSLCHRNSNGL
Protocol: as §1, §2, §3

GRK-5 = GRK-5 (Homo sapiens, UniProt P34947); experiment: luciferase-based biochemical kinase inhibition assay, GRK-5; details: same luciferase assay; read-out: GRK-5 inhibition, Ki class
GRK-5, sequence (P34947 whole entry, species assumed): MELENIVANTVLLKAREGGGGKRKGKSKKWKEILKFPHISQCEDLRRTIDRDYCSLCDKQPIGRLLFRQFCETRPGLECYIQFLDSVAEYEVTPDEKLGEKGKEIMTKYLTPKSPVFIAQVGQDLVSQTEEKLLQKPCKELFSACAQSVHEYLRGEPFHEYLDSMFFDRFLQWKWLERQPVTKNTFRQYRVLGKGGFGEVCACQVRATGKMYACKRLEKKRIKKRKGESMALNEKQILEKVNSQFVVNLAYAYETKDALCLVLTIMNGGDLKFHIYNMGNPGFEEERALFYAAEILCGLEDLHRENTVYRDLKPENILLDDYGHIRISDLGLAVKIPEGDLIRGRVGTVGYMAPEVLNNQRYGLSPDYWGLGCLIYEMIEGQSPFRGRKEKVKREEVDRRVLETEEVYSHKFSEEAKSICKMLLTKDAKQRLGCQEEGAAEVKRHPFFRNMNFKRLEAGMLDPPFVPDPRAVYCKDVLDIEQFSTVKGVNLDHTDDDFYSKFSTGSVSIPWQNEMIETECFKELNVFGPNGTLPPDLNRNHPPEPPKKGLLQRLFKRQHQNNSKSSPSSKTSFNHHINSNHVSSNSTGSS
Protocol: The inhibition of G-protein-coupled receptor kinases including hGRK-2 was determined for the hydrazide compounds using a biochemical assay. […] The inhibition of GRK-3, GRK-5 and GRK-6 was also determined using the same assay for some of the hydrazide derivatives.
as §2, §3

Structure (SMILES)	Ki (hGRK-2)	Ki (GRK-3)	Ki (GRK-5)
NS(=O)(=O)c1cccc(NCC(=O)N/N=C/c2ccncc2)c1 [Example 63, 3-{[1-Pyridin-4-yl-meth-(E)-ylidene-hydrazinocarbonylmethyl]-amino}-benzenesulfonamide]	100 to 1000 nM	1000 to 10000 nM	> 10000 nM
O=C(CNc1cccc(OCc2ccccc2)c1)N/N=C/c1ccncc1 [Example 47, (3-Benzyloxy-phenylamino)-acetic acid [1-pyridin-4-yl-meth-(E)-ylidene]-hydrazide]	100 to 1000 nM	100 to 1000 nM	1000 to 10000 nM
O=C(CNc1cccc(Cl)c1)N/N=C/c1ccncc1 [Example 37, (3-Chloro-phenylamino)-acetic acid [1-pyridin-4-yl-meth-(E)-ylidene]-hydrazide]	100 to 1000 nM	1000 to 10000 nM	> 10000 nM
O=C(CNc1cccc(C(=O)Nc2ccccc2)c1)N/N=C/c1ccncc1 [Example 96, N-Phenyl-3-{[1-pyridin-4-yl-meth-(E)-ylidene-hydrazinocarbonylmethyl]-amino}-benzamide]	100 to 1000 nM	10 to 100 nM	–
O=C(CNc1ccc(Cl)cc1)N/N=C/c1ccncc1 [Example 57, (4-Chloro-phenylamino)-acetic acid [1-pyridin-4-yl-meth-(E)-ylidene]-hydrazide]	1000 to 10000 nM	–	–
CC(C)Oc1cccc(NCC(=O)N/N=C/c2ccncc2)c1 [Example 58, (3-Isopropoxy-phenylamino)-acetic acid [1-pyridin-4-yl-meth-(E)-ylidene]-hydrazide]	1000 to 10000 nM	–	–
CC(=O)Nc1cccc(NCC(=O)N/N=C/c2ccncc2)c1 [Example 72, N-(3-{[1-Pyridin-4-yl-meth-(E)-ylidene-hydrazinocarbonylmethyl]-amino}-phenyl)-acetamide]	> 10000 nM	–	–
O=C(CNc1cccc(OCCN2CCOCC2)c1)N/N=C/c1c(Cl)cncc1Cl [Example 32, [3-(2-Morpholin-4-yl-ethoxy)-phenylamino]-acetic acid [1-(3,5-dichloro-pyridin-4-yl)-meth-(E)-ylidene]-hydrazide]	1000 to 10000 nM	–	–
O=C(CNc1ccc(F)cc1)N/N=C/c1ccncc1 [Example 53, (4-fluoro-phenylamino)-acetic acid [1-pyridin-4-yl-meth-(E)-ylidene]-hydrazide]	1000 to 10000 nM	–	–
CC(C)c1cccc(NCC(=O)N/N=C/c2ccncc2)c1 [Example 61, (3-Isopropyl-phenylamino)-acetic acid [1-pyridin-4-yl-meth-(E)-ylidene]-hydrazide]	> 10000 nM	–	–

Second part, the molecule after the results:

Ki (hGRK-2)	Ki (GRK-3)	Ki (GRK-5)	Structure (SMILES)
100 to 1000 nM	1000 to 10000 nM	1000 to 10000 nM	NS(=O)(=O)c1cccc(NCC(=O)N/N=C/c2c(Cl)cncc2Cl)c1 [Example 22, 3-{[1-(3,5-Dichloro-pyridin-4-yl)-meth-(E)-ylidene-hydrazinocarbonylmethyl]-amino}-benzenesulfonamide]
100 to 1000 nM	100 to 1000 nM	1000 to 10000 nM	CSc1cccc(NCC(=O)N/N=C/c2c(Cl)cncc2Cl)c1 [Example 10, (3-Methylsulfanyl-phenylamino)-acetic acid [1-(3,5-dichloro-pyridin-4-yl)-meth-(E)-ylidene]-hydrazide]
100 to 1000 nM	1000 to 10000 nM	1000 to 10000 nM	O=C(CNc1cccc(F)c1)N/N=C/c1c(Cl)cncc1Cl [Example 4, (3-Fluoro-phenylamino)-acetic acid [1-(3,5-dichloro-pyridin-4-yl)-meth-(E)-ylidene]-hydrazide]
> 10000 nM	–	–	CC(C)c1cccc(NCC(=O)N/N=C/c2c(Cl)cncc2Cl)c1 [Example 16, (3-Isopropyl-phenylamino)-acetic acid [1-(3,5-dichloro-pyridin-4-yl)-meth-(E)-ylidene]-hydrazide]
1000 to 10000 nM	–	–	Cc1ccc(NCC(=O)N/N=C/c2c(Cl)cncc2Cl)cc1 [Example 17, p-Tolylamino-acetic acid [1-(3,5-dichloro-pyridin-4-yl)-meth-(E)-ylidene]-hydrazide]
1000 to 10000 nM	–	–	O=C(CNc1cccc([N+](=O)[O-])c1)N/N=C/c1c(Cl)cncc1Cl [Example 7, (3-Nitro-phenylamino)-acetic acid [1-(3,5-dichloro-pyridin-4-yl)-meth-(E)-ylidene]-hydrazide]
1000 to 10000 nM	–	–	O=C(CNc1cccc(I)c1)N/N=C/c1c(Cl)cncc1Cl [Example 11, (3-Iodo-phenylamino)-acetic acid [1-(3,5-dichloro-pyridin-4-yl)-meth-(E)-ylidene]-hydrazide]
1000 to 10000 nM	–	–	N#Cc1cccc(NCC(=O)N/N=C/c2c(Cl)cncc2Cl)c1 [Example 3, (3-Cyano-phenylamino)-acetic acid [1-(3,5-dichloro-pyridin-4-yl)-meth-(E)-ylidene]-hydrazide]
> 10000 nM	–	–	O=C(CNc1cccc(-n2cncn2)c1)N/N=C/c1c(Cl)cncc1Cl [Example 31, (3-[1,2,4]Triazol-1-yl-phenylamino)-acetic acid [1-(3,5-dichloro-pyridin-4-yl)-meth-(E)-ylidene]-hydrazide]
